Source: patent publication US20240003884A1, “METHODS AND COMPOSITIONS USING NON-INVASIVE PLASMA GLYCOMIC AND METABOLIC BIOMARKERS OF POST-TREATMENT CONTROL OF HIV” (priority 2020, published 2024)

Tests used:
[1] = system: THP-1 derived macrophage-like cells; assay: LPS/IFNγ-mediated cytokine secretion from THP-1 derived macrophage-like cells (MSD multiplex, ELISA); format: cell-based; conditions: 2 h before LPS/IFNγ for 5 h
Method: (§1) (FIG. 2A) JLat 5A8 or 10.6 clones were stimulated with appropriate stimuli in the presence or absence of L-glutamic acid or vehicle control (cell culture suitable HCl solution). Geometric mean fluorescence intensity (MFI) of HIV-regulated GFP expression was measured by flow cytometry. Cell viability was determined by LIVE/DEAD aqua staining. (FIG. 2B) J-Lat 5A8 cells (n=3) and (FIG. 2C) J-Lat 10.6 cells (n=3), were treated with PMA/I (2 nM/500 nM), ImmunoCult Human CD3/CD28 T Cell Activator (25 μl per 10^6 cells), or TNFα (10 ng/ml) in the presence or absence of L-glutamic acid (5 mM) or appropriate control. Bar graphs display mean±SD values, and statistical comparisons were performed using two-tailed unpaired t-tests. (FIG. 2D) THP-1 cells were differentiated into macrophage-like cells using PMA. Cells were then treated with L-glutamic acid (5 mM), Pyruvic acid (2 mM), or appropriate controls for 2 hours prior to LPS/IFNγ stimulation for 5 hours. […] Bar graphs display mean±SD, and statistical comparisons were performed using two-tailed unpaired t-tests. […] Bar graphs display mean±SD, and statistical comparisons were performed using two-tailed unpaired t-tests.
In-vitro examination of the impact of L-glutamic acid and pyruvate on myeloid inflammation. THP1 cells were plated in 24-well plates at a density of 7×10^5 cells per well. To differentiate them into macrophages-like, 100 nM of PMA (Sigma catalog #P8139) was added and incubated for 72 hours. After incubation, media was aspirated, and each well was gently washed twice with R10 media. Cells were then rested for 24 hours on R10 media without PMA. After 24 hours, cells were washed again with serum-free RPMI 1640 media and kept on this media for the rest of experiment. Macrophage-like THP1 cells were pre-incubated with L-glutamic acid (5 mM) or Sodium Pyruvate solution (2 mM, Sigma catalog #S8636-100 ml) for 2 hours before stimulating with Escherichia coli serotype O127:B8 LPS (50 ng/ml; Sigma catalog #L3129-10MG) and IFNγ (10 ng/ml; R&D Systems catalog #285-IF-100, respectively). After 5 hours of incubation with LPS/IFNγ, culture supernatants were collected for cytokine quantitation. Supernatant levels of IL-10, IL-12p70, IL-13, IL-1β, IL-2, IL-4, IL-6, and IL-8 were determined using U-PLEX Proinflam Combo 1 (Meso Scale Diagnostic #K15049k-1) according to manufacture. Levels of TNF-α were quantified using DuoSet ELISA kits (R&D Systems catalog #DY210-05).
Beyond the direct impact on latent viral reactivation, plasma metabolites may exert effects on myeloid inflammation, and such effects may underlie HIV control during ATI. This possibility was tested by examining the effects of L-glutamic acid and pyruvate on lipopolysaccharides (LPS)-mediated secretion of pro-inflammatory cytokines from THP-1 derived macrophage-like cells. These cells are characterized by high basal glycolytic activity, which closely reflects the Warburg-like phenotype observed in HIV-infected individuals37. […] Cells were treated with L-glutamic acid, pyruvate, or appropriate controls for 2 h before stimulating with LPS and IFNγ for 5 h (FIG. 2D).

[2] = system: J-Lat 10.6 cells (latent HIV provirus); conditions: J-Lat clone 10.6
Method: as §1

[3] = system: J-Lat 5A8 cells (latent HIV provirus); conditions: J-Lat clone 5A8
Method: as §1
Bar graphs display mean±SD values, and statistical comparisons were performed using two-tailed unpaired t-tests.

[4] = L-glutamic acid 5 mM with stimuli
[5] = L-glutamic acid 5 mM, 24 hours, vs stimuli alone
[6] = pyruvate 2 mM, listed as Pyruvate

SMILES	LPS/IFNγ-mediated IL-6 secretion ([1]; L-glutamic acid 5 mM)	LPS/IFNγ-mediated TNFα secretion ([1]; L-glutamic acid 5 mM)	LPS/IFNγ-mediated anti-inflammatory IL-10 production ([1]; L-glutamic acid 5 mM)	Cell viability (LIVE/DEAD aqua staining) [2, 4]	PMA/ionomycin-induced reactivation of latent HIV (GFP MFI) [2, 5]	TNFα-induced reactivation of latent HIV (GFP MFI) ([2]; TNFα 10 ng/ml, L-glutamic acid 5 mM, 24 hours)	Cell viability (LIVE/DEAD aqua staining) [3, 4]	PMA/ionomycin-induced reactivation of latent HIV (GFP MFI) [3, 5]	αCD3/αCD28-induced reactivation of latent HIV (GFP MFI) [3, 5]	LPS/IFNγ-mediated IL-6 secretion ([1]; pyruvate 2 mM)	LPS/IFNγ-mediated TNFα secretion ([1]; pyruvate 2 mM)	LPS/IFNγ-mediated IL-6 secretion [1, 6]	LPS/IFNγ-mediated TNFα secretion [1, 6]
N[C@@H](CCC(=O)O)C(=O)O [L-glutamic acid]	significantly inhibited	significantly inhibited	significantly increased	without impacting viability	inhibited	inhibited	without impacting viability	significantly inhibited	significantly inhibited				
CC(=O)C(=O)O [pyruvate, Pyruvic acid]										increased	increased	significantly increased	significantly increased
